Measurements published in the Bradley open melting point set (2014).
Several values for one entry are separate records, joined by “and”; a condition that tells them apart may be missing. Equal values may be shown once.

| melting point | Compound |
| --- | --- |
| 120 °C | O=[N+]([O-])c1cccc(C=NO)c1 [m-Nitrobenzaldehyde oxime] |
| 97 °C | CC(=O)c1cccc(N)c1 [m-aminoacetophenone] |
| 125 °C | Nc1cccc(O)c1 [m-aminophenol] |
| 0 °C | COc1cccc(N)c1 [m-anisidine] |
| 157 °C | O=C(O)c1cccc(Br)c1 [m-bromobenzoic acid] |
| 28 °C | N#CCc1cccc(Br)c1 [m-bromophenylacetonitrile] |
| 87 °C | N#CCc1cccc(C#N)c1 [m-cyano_phenylacetonitrile] |
| -63 °C | CC(C)c1cccc(C(C)C)c1 [m-diisopropylbenzene] |
| 58 °C | O=Cc1cccc(I)c1 [m-iodobenzaldehyde] |
| 110 °C | Cc1cccc(C(=O)O)c1 [m-toluic_acid] |
| 73 °C | Cc1cccc(C(=O)CC#N)c1 [m-toluoylacetonitrile] |
| 96 °C | C=Cc1cccc(C(=O)O)c1 [m-vinylbenzoic_acid] |
| 134 °C | O=C(O)C=CC(=O)O [maleic acid] |
| 168 °C | OC[C@@H](O)[C@@H](O)[C@H](O)[C@H](O)CO [mannitol] |
| 92 °C | CNCCCC12CCC(c3ccccc31)c1ccccc12 [maprotiline] |
| 100 °C | CCc1c(C)[nH]c2ccc(N(C)C)cc12 [medmain] |
| 254 °C | Cc1cnc(s1)NC(=O)C\3=C(/O)c2ccccc2S(=O)(=O)N/3C [meloxicam] |
| 106 °C | Cc1cc(CCN2CCN(c3cccc(Cl)c3)CC2)n[nH]1 [mepiprazole] |
| 169 °C | Cc1cc(C)c(CC(=O)O)c(C)c1 [mesitylacetic acid] |
| 79 °C | Cc1cc(C)c(CC#N)c(C)c1 [mesitylacetonitrile] |
| 34.5 °C and 33 °C | C[C@H](O)[C@@H](C)O [meso-2,3-butanediol] |
| 135 °C | O[C@H](c1ccccc1)[C@@H](O)c1ccccc1 [meso-hydrobenzoin] |

| melting point | Compound |
| --- | --- |
| 100 °C | CC(C)NCC(O)c1cc(O)cc(O)c1 (centres undefined) [metaproterenol] |
| 16 °C | C=C(C)C(=O)O [methacrylic acid] |
| 90 °C | CS(N)(=O)=O [methanesulfonamide] |
| 87 °C | CN1CCC(CN2c3ccccc3Sc3ccccc32)C1 (centres undefined) [methdilazine] |
| 225 °C | CN1C(CCl)Nc2cc(Cl)c(S(N)(=O)=O)cc2S1(=O)=O (centres undefined) [methyclothiazide] |
| 50 °C | COC(=O)n1c(C)c(C)c2ccccc21 [methyl 2,3-dimethyl-1H-indole-1-carboxylate] |
| 72 °C | CCC1=Nc2ccccc2C1(C)C(=O)OC (centres undefined) [methyl 2-ethyl-3-methyl-3H-indole-3-carboxylate] |
| 48 °C | COC(=O)c1ccc(OC)cc1O [methyl 2-hydroxy-4-methoxybenzoate] |
| -13 °C | COC(=O)c1ccccc1[N+](=O)[O-] [methyl 2-nitrobenzoate] |
| 143 °C | COC(=O)c1ccc(-c2cccc([N+](=O)[O-])c2)cc1 [methyl 3'-nitrobiphenyl-4-carboxylate] |
| 75 °C | COC(=O)C1=Nc2ccccc2C1(C)C [methyl 3,3-dimethyl-3H-indole-2-carboxylate] |
| 36 °C | COC(=O)c1ccc(C)c(C)c1 [methyl 3,4-dimethylbenzoate] |
| 51 °C | COC(=O)c1cccc(N)c1 [methyl 3-aminobenzoate] |
| 122 °C | COC(=O)c1ccc(OC)c(C#N)c1 [methyl 3-cyano-4-methoxybenzoate] |
| 67 °C | COC(=O)c1ccc(C#N)cc1 [methyl 4-cyanobenzoate] |
| 39 °C | COC(=O)c1ccc(F)cc1O [methyl 4-fluorosalicylate] |
| 61 °C | COC(=O)c1ccc(C=O)cc1 [methyl 4-formylbenzoate] |
| 103 °C | COC(=O)c1ccc(I)c([N+](=O)[O-])c1 [methyl 4-iodo-3-nitrobenzoate] |
| 115 °C | COC(=O)c1ccc(I)cc1 [methyl 4-iodobenzoate] |
| 96 °C | COC(=O)c1ccc([N+](=O)[O-])cc1 [methyl 4-nitrobenzoate] |
| 124 °C | COC(=O)CCC(C)C1CCC2C3C(=O)C(Br)C4CCCCC4(C)C3CCC12C (centres undefined) [methyl 6-bromo-7-oxocholan-24-oate] |
| 159 °C | COC(=O)CCC(C)C1CCC2C3C(OC(C)=O)C(Br)C4CCCCC4(C)C3CCC12C (centres undefined) [methyl 7-(acetyloxy)-6-bromocholan-24-oate] |

| melting point | Compound |
| --- | --- |
| -44 °C | COC(=O)[C@H](C)O [methyl (S)-lactate] |
| -98 °C | COC(C)=O [methyl acetate] |
| 169 °C | CO[C@H]1O[C@H](CO)[C@@H](O)[C@H](O)[C@H]1O [methyl alpha-d-glucopyranoside] |
| 48 °C | CCCCCCCCCCCCCCCCCCCC(=O)OC [methyl eicosanoate] |
| -71 °C | CCCCCC(=O)OC [methyl hexanoate] |
| 86 °C | COC(=O)c1cc2ccccc2cn1 [methyl isoquinoline-3-carboxylate] |
| 31 °C | CCCCCCCCCCCCCCCC(=O)OC [methyl palmitate] |
| 98 °C | COC(=O)c1ccc2nccnc2c1 [methyl quinoxaline-6-carboxylate] |
| -9 °C | COC(=O)c1ccccc1O [methyl salicylate] |
| 40 °C | CCCCCCCCCCCCCCCCCC(=O)OC [methyl stearate] |
| 43 °C | COC(=O)c1cc(OC)cc(OC)c1 [methyl_3,5-dimethoxybenzoate] |
| 95 °C | COC(=O)c1ccc(C(C)=O)cc1 [methyl_4-acetylbenzoate] |
| 44 °C | COC(=O)c1ccc(Cl)cc1 [methyl_4-chlorobenzoate] |
| 62 °C | COC(=O)c1ccc(C#N)cc1 [methyl_4-cyanobenzoate] |
| -126 °C | CC1CCCCC1 [methylcyclohexane] |
| -142 °C | CC1CCCC1 [methylcyclopentane] |
| 164 °C | COc1ccc2c(c1)c1c3n2CCN(C)C3=NCC1 [metralindole] |
| 160 °C | Cc1ncc([N+](=O)[O-])n1CCO [metronidazole] |
| 248 °C | Nc1cc(N2CCCCC2)nc(N)[n+]1[O-] [minoxidil] |
| 180 °C | CCc1c(C)[nH]c2c1C(=O)C(CN1CCOCC1)CC2 (centres undefined) [molindone] |
| 42 °C | CCCCCCCCCCCCOP(=O)(O)O [mono-n-dodecyl phosphate] |
| 156 °C | CCOC(=O)Nc1ccc2c(c1)N(C(=O)CCN1CCOCC1)c1ccccc1S2 [moricizine] |

| melting point | Compound |
| --- | --- |
| 78 °C | CCc1cc2cc(OC)c(OC)cc2c(Cc2ccccc2)n1 [moxaverine] |
| 125 °C | CC(C)(C)NCC(O)COc1cccc2c1C[C@H](O)[C@H](O)C2 (some centres undefined) [nadolol] |
| 83 °C and 80.2 °C | c1ccc2ccccc2c1 [naphthalene] |
| 130 °C | NC(=O)c1cccnc1 [nicotinamide] |
| 186 °C | C[C@H](Cc1ccc(O)c(O)c1)[C@@H](C)Cc1ccc(O)c(O)c1 [nordihydroguaiaretic acid] |
| 220 °C | CCn1cc(C(=O)O)c(=O)c2cc(F)c(N3CCNCC3)cc21 [norfloxacin] |
| 20 °C | CC(=O)c1ccccc1N [o-aminoacetophenone] |
| 113 °C | NC(=O)c1ccccc1N [o-aminobenzamide] |
| 38 °C | COc1ccccc1C=O [o-anisaldehyde] |
| 81 °C | OCc1ccccc1Br [o-bromobenzyl alcohol] |
| 143 °C | NC(=O)c1ccccc1Cl [o-chlorobenzamide] |
| 1 °C | Clc1ccccc1I [o-chloroiodobenzene] |
| 172 °C | N#Cc1ccccc1C(N)=O [o-cyanobenzamide] |
| 122 °C | N#CCc1ccccc1O [o-hydroxy_phenylacetonitrile] |
| 46 °C | O=Cc1ccccc1[N+](=O)[O-] [o-nitrobenzaldehyde] |
| 115 °C | O=C(O)c1ccccc1-c1ccccc1 [o-phenylbenzoic_acid] |
| 102 °C | Nc1ccccc1N [o-phenylenediamine] |
| 44.5 °C | COc1cccc(C=O)c1O [o-vanillin] |
| 29 °C | C=Cc1ccccc1O [o-vinyl_phenol] |

| Compound | melting point |
| --- | --- |
| OC[C@@H]1CCCN2CCCC[C@H]12 [lupinine] | 64 °C |
| Nc1cccc([N+](=O)[O-])c1 [m-nitroaniline] | 114 °C |
| Cc1cccc(N)c1 [m-toluidine] | -30 °C |
| CCCC(C)(COC(N)=O)COC(N)=O [meprobamate] [listing 1 of 2 here] | 104 °C |
| CCCC(C)(COC(N)=O)COC(N)=O [meprobamate] [listing 2 of 2 here] | 105 °C |
| CC(=O)C=C(C)C [mesityl oxide] | -59 °C |
| C=C(C)CC1(CC)C(=O)NC(=S)NC1=O [methallatal] | 160 °C |
| COC(=O)c1ccccc1N [methyl anthranilate] | 24 °C |
| COC(=O)c1ccccc1OC(C)=O [methyl_2-acetoxybenzoate] | 52 °C |
| COS(=O)(=O)c1ccc(C)cc1 [methyl_p-toluenesulfonate] | 79 °C |
| CCc1cccc(C)c1N(C(=O)CCl)C(C)COC (centres undefined) [metolachlor] | 25 °C |
| CN(C)C(=O)Nc1ccc(Cl)cc1 [monuron] | 172 °C and 174 °C |
| c1ccc2cc3cc4ccccc4cc3cc2c1 [naphthacene] | 357 °C |
| O=[N+]([O-])c1ccccc1 [nitrobenzene] [listing 1 of 2 here] | 6 °C |
| O=[N+]([O-])c1ccccc1 [nitrobenzene] [listing 2 of 2 here] | 6 °C |
| O=[N+]([O-])c1ccccc1O [nitrophenol] | 45 °C |
| CCCCCCCCCC#N [nonyl_cyanide] | -15 °C |
| Cc1ccccc1N [o-Toluidine] | -16 °C |
| Oc1ccccc1Cl [o-chlorophenol] | 8 °C |
| Nc1ccccc1[N+](=O)[O-] [o-nitroaniline] | 73 °C |
| O=[N+]([O-])c1ccccc1O [o-nitrophenol] | 45 °C |
| c1ccc(-c2ccccc2-c2ccccc2)cc1 [o-terphenyl] | 57 °C |
| Cc1ccccc1N [o-toluidine] | -24 °C |
| CCCCCCCC#N [octanenitrile] | -45 °C |
